The Kinase Knowledgebase extract (Sharma et al. 2016)

Each molecule was assayed against MAPK14 (UniProt Q16539) (assay: MAPK14 Binding Inhibition).
MAPK14, sequence (Q16539 whole entry, looked up): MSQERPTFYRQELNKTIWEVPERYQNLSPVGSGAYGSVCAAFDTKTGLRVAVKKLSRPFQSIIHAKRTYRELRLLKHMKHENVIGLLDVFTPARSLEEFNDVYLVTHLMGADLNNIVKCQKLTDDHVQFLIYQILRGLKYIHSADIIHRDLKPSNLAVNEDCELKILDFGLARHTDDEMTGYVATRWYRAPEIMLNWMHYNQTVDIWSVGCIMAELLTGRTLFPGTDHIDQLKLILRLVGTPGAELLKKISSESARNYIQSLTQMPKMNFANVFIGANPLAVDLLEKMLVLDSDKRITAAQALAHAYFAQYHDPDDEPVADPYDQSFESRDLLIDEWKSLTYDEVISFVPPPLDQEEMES

inhibition, < 50 µM:
CCOC(=O)N1CCC(Nc2nccc(-c3c(-c4ccc(F)cc4)ncn3C3CCN(C)CC3)n2)CC1, NCCNc1nccc(-c2c(-c3ccc(F)cc3)ncn2C2CCNCC2)n1, CN1CCC(n2cnc(-c3ccc(F)cc3)c2-c2ccnc(NCc3cccc(Cl)c3)n2)CC1, CN1CCC(n2cnc(-c3ccc(F)cc3)c2-c2ccnc(NCc3cccc4ccccc34)n2)CC1, CN1CCC(n2cnc(-c3ccc(F)cc3)c2-c2ccnc(NCc3cccc4c3OCO4)n2)CC1, CN1CCC(n2cnc(-c3ccc(F)cc3)c2-c2ccnc(NCCc3c[nH]c4ccc(Cl)cc34)n2)CC1, CCOCCCNc1nccc(-c2c(-c3ccc(F)cc3)ncn2C2CCNCC2)n1, CC1(C)CC(n2cnc(-c3ccc(F)cc3)c2-c2ccnc(NCCO)n2)CC(C)(C)N1, O[C@H]1CC[C@H](n2cnc(-c3ccc(F)cc3)c2-c2ccnc(Nc3ccccc3)n2)CC1, CN1CCC(n2cnc(-c3ccc(F)cc3)c2-c2ccnc(NCCO)n2)CC1, CN1CCC(n2cnc(-c3ccc(F)cc3)c2-c2ccnc(NC3CCSCC3)n2)CC1, CN1CCC(n2cnc(-c3ccc(F)cc3)c2-c2ccnc(NCc3ccccc3)n2)CC1, Fc1ccc(-c2ncn(C3CCNCC3)c2-c2ccnc(Nc3ccccc3)c2)cc1, O=C1CCC(n2cnc(-c3ccc(F)cc3)c2-c2ccnc(Nc3ccccc3)n2)CC1, CN1CCC(n2cnc(-c3ccc(F)cc3)c2-c2ccnc(NC3CC(C)(C)NC(C)(C)C3)n2)CC1, CN1CCC(n2cnc(-c3ccc(F)cc3)c2-c2ccnc(NC3CCNCC3)n2)CC1, CN1CCC(n2cnc(-c3ccc(F)cc3)c2-c2ccnc(Nc3ccccc3)n2)CC1, Fc1ccc(-c2ncn(C3CCNCC3)c2-c2ccnc(Nc3cccc(Br)c3)n2)cc1, CN1CCC(n2cnc(-c3ccc(F)cc3)c2-c2ccnc(NC3CCN(Cc4ccccc4)CC3)n2)CC1, CC1(C)CC(n2cnc(-c3ccc(F)cc3)c2-c2ccnc(Nc3ccccc3)n2)CC(C)(C)N1, CN1CCC(n2cnc(-c3ccc(F)cc3)c2-c2ccnc(NCCCN3CCOCC3)n2)CC1, Fc1ccc(-c2ncn(C3CCNCC3)c2-c2ccnc(Nc3ccccc3)n2)cc1, Fc1ccc(-c2ncn(C3CCNCC3)c2-c2ccnc(NCCCn3ccnc3)n2)cc1

These molecules were tested against MAPK14 (UniProt Q16539) (assay: MAPK14 Kinase Inhibition).

IC50, < 50 µM:
Oc1cccc(Nc2nccc(-c3c(-c4ccc(F)cc4)ncn3C3CCNCC3)n2)c1, Fc1ccc(-c2ncn(C3CCNCC3)c2-c2ccnc(Nc3cccc(C(F)(F)F)c3)n2)cc1, C[S+]([O-])c1ccc(-c2ncn(C3CCNCC3)c2-c2ccnc(Nc3ccccc3)n2)cc1 (configuration not stated), COc1ccc(Nc2nccc(-c3c(-c4ccc(F)cc4)ncn3C3CCNCC3)n2)cc1, Fc1ccc(Nc2nccc(-c3c(-c4ccc(F)cc4)ncn3C3CCNCC3)n2)cc1, Oc1ccc(Nc2nccc(-c3c(-c4ccc(F)cc4)ncn3C3CCNCC3)n2)cc1, Fc1ccc(-c2ncn(C3CCNCC3)c2-c2ccnc(Nc3cccc(F)c3)n2)cc1, Fc1ccc(-c2ncn(C3CCNCC3)c2-c2ccnc(Nc3ccccc3F)n2)cc1, COc1cccc(Nc2nccc(-c3c(-c4ccc(F)cc4)ncn3C3CCNCC3)n2)c1, CCOC(=O)N1CCC(n2cnc(-c3ccc(F)cc3)c2-c2ccnc(Nc3ccc(OCc4ccccc4)cc3)n2)CC1, COc1ccccc1Nc1nccc(-c2c(-c3ccc(F)cc3)ncn2C2CCNCC2)n1, CCOC(=O)N1CCC(n2cnc(-c3ccc(F)cc3)c2-c2ccnc(Nc3cccc(OCc4ccccc4)c3)n2)CC1, CSc1ccc(-c2ncn(C3CCNCC3)c2-c2ccnc(Nc3ccccc3)n2)cc1, Fc1ccc(-c2ncn(C3CCNCC3)c2-c2ccnc(Nc3ccc(F)c(F)c3)n2)cc1
